Results: paper PMC3776780, “Dual p38/JNK Mitogen Activated Protein Kinase Inhibitors Prevent Ozone-Induced Airway Hyperreactivity in Guinea Pigs” (PLoS ONE, 2013)

Tests used:
Experiment in all cases: spectrophotometric coupled-enzyme kinase inhibition assay
Type in all cases: biochemical
AurA = target: T1, AurA (Homo sapiens, UniProt O14965); conditions: read-out: Ki or IC50 AurA
T1 sequence (O14965 1-403): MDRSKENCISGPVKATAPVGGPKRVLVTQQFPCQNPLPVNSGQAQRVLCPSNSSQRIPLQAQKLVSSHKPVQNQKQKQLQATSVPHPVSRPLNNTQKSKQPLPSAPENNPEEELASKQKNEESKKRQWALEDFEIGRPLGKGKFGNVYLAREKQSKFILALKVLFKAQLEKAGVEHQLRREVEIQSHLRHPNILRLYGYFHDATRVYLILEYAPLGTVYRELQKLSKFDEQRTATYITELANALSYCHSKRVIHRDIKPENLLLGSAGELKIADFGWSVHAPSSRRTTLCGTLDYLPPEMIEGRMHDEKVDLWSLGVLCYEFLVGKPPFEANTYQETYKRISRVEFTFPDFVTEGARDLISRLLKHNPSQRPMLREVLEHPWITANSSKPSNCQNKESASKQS
Method: (§1) Affinity was measured using a kinase inhibition assay. Compounds were assayed for the inhibition of various kinases using a modification of a spectrophotometric coupled-enzyme assay. In this assay, a fixed concentration of activated kinase (10–40 nM) was incubated with various concentrations of a potential inhibitor dissolved in DMSO for 10 minutes at 30°C in a buffer containing 0.1 M HEPES, pH 7.5, containing 10 mM MgCl2, 2.5 mM phosphoenolpyruvate, 200 µM NADH, 2 mM DTT, 30 µg/mL pyruvate kinase, 10 µg/mL lactate dehydrogenase, and 200 µM–500 µM EGF receptor peptide. The EGF receptor peptide has the sequence […]. The reaction was initiated by the addition of ATP equal to the ATP Km of the kinase, and the assay plate is inserted into the spectrophotometer’s assay plate compartment that was maintained at 30°C. The decrease of absorbance at 340 nm was monitored as a function of time for 10 minutes. The rate data as a function of inhibitor concentration was either fit as an IC50 or to a competitive inhibition kinetic model to determine the compound Ki (see table 1).

CDK2 = CDK2 (Homo sapiens, UniProt P24941); conditions: read-out: Ki or IC50 CDK2
Method: as §1

ERK2 = ERK2 (Homo sapiens, UniProt P28482); conditions: read-out: Ki or IC50 ERK2
ERK2, sequence (P28482 whole entry, species assumed): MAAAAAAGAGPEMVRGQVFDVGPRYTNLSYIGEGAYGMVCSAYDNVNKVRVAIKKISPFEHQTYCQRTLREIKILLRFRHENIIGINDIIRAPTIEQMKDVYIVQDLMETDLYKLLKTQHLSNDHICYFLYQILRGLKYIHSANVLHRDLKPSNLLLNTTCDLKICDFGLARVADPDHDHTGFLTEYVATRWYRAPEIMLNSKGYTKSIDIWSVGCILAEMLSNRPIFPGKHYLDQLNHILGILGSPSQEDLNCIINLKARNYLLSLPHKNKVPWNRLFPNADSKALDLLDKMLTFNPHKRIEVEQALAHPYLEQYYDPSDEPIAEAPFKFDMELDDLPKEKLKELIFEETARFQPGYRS
Method: as §1

JAK3 = target: T2, JAK3 (Homo sapiens, UniProt P52333); conditions: read-out: Ki or IC50 JAK3
T2 sequence (P52333 1-1124): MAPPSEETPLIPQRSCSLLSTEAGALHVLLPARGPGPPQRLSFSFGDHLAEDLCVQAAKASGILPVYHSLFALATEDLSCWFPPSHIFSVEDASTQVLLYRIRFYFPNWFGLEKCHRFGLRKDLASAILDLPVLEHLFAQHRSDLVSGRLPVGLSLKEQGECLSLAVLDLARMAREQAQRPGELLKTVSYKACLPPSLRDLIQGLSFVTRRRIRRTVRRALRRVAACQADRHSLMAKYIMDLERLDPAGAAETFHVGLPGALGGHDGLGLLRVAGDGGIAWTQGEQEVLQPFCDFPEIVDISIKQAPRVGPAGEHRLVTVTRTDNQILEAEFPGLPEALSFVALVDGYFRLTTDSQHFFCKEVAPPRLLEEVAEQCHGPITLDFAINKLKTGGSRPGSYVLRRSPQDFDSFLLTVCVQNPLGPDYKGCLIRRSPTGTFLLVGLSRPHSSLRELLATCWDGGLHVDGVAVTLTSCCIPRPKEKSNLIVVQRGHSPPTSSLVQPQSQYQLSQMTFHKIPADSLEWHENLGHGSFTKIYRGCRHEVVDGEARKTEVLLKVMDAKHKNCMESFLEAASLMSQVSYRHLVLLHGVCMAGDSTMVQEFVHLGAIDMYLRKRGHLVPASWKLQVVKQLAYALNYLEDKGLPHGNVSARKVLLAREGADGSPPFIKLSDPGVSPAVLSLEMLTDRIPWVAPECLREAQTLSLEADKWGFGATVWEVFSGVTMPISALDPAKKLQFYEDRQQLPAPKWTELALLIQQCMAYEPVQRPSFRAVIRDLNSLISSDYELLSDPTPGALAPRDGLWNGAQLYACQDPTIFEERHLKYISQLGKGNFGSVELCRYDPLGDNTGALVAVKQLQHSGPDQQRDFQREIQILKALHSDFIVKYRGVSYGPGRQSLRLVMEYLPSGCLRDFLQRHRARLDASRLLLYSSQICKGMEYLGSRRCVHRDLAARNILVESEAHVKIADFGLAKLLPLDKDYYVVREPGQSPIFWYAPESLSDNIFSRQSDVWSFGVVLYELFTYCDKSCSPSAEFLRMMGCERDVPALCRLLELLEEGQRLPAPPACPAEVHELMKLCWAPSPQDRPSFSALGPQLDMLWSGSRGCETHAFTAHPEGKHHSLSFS
Method: as §1

MAPKAP2 = MAPKAP2 (Homo sapiens, UniProt P49137); conditions: read-out: Ki or IC50 MAPKAP2
MAPKAP2, sequence (P49137 whole entry): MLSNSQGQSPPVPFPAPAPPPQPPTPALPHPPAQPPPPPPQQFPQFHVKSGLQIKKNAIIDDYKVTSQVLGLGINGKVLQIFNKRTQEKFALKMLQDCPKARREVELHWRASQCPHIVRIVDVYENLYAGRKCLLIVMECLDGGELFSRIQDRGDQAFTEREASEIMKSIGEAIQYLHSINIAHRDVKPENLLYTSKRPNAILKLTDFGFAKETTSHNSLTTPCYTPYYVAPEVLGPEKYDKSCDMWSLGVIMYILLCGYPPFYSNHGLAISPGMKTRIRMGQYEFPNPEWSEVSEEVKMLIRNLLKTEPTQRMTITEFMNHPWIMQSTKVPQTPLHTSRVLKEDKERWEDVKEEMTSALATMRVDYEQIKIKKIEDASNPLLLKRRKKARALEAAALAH
Method: as §1

MKK7 = target: T3, MKK7 (Homo sapiens, UniProt O14733); conditions: read-out: Ki or IC50 MKK7
T3 sequence (O14733 1-419): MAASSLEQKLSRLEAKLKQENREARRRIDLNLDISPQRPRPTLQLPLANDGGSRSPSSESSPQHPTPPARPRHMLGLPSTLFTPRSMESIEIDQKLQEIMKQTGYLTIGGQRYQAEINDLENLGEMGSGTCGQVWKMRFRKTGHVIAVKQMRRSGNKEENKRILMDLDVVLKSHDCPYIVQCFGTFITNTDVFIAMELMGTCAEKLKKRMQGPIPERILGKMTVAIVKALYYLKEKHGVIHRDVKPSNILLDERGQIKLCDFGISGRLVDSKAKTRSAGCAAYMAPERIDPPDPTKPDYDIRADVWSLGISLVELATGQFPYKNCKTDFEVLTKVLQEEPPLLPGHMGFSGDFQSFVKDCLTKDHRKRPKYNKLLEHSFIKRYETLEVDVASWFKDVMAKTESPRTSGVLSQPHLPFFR
Method: as §1

ROCK1 = ROCK1 (Homo sapiens, UniProt Q13464); conditions: read-out: Ki or IC50 ROCK1
ROCK1, sequence (Q13464 whole entry, species assumed): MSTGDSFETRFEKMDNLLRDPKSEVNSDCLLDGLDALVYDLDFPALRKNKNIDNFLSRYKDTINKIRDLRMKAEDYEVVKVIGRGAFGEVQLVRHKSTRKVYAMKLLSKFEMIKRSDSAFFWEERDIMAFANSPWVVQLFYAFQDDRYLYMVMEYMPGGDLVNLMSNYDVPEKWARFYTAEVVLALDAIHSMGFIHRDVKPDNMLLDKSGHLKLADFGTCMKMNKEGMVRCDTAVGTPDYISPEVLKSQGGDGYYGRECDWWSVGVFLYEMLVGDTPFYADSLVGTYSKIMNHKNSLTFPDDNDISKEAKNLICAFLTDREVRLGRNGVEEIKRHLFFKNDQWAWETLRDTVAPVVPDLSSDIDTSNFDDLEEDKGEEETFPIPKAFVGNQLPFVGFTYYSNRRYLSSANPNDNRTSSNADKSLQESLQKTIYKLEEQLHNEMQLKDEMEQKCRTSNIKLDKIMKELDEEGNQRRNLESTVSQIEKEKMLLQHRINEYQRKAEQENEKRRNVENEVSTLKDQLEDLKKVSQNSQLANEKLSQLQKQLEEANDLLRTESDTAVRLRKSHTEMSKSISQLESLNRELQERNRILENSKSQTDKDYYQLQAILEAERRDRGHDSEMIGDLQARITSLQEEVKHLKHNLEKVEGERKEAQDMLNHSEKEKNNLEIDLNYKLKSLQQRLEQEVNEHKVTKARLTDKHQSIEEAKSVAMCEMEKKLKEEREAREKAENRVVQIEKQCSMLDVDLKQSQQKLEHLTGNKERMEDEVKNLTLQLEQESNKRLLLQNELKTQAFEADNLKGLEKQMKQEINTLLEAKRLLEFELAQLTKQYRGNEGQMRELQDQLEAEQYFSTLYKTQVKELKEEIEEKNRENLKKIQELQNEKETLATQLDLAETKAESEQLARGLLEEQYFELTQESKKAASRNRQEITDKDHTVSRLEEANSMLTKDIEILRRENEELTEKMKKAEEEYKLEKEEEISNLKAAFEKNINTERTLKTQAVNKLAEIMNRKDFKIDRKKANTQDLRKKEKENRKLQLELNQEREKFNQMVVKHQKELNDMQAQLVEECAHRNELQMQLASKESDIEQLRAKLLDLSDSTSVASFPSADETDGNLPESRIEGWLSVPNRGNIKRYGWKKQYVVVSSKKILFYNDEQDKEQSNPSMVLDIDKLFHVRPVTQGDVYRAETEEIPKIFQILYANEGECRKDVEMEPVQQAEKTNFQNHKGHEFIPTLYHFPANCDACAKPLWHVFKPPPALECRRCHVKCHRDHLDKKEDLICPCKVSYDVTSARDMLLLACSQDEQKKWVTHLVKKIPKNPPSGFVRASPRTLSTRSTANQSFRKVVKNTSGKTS
Method: as §1

p38 = p38 (Homo sapiens, UniProt Q16539); conditions: ATP equal to Km, 30°C
p38, sequence (Q16539 whole entry): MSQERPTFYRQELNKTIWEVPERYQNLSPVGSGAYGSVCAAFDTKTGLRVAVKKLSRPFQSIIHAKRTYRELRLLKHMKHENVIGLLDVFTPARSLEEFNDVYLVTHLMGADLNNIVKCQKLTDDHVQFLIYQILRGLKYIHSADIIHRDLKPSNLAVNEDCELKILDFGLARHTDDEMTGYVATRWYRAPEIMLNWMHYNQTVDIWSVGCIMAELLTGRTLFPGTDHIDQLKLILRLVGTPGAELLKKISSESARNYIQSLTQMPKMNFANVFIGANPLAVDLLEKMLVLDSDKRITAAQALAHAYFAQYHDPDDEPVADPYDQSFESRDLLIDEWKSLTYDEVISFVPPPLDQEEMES
Method: as §1

Row | Ki (AurA) [nM] | Ki (CDK2) [nM] | Ki (ERK2) [nM] | Ki (JAK3) [nM] | Ki (MAPKAP2) [nM] | Ki (MKK7) [nM] | Ki (ROCK1) [nM] | Ki (p38) [nM] | IC50 (p38; read-out: IC50 p38 (footnote: this one value is an IC50, not a Ki)) [nM] | Structure (SMILES)
1 | > 1000 | > 1000 | > 1000 | > 1000 | > 1000 | > 1000 | > 1000 | 13 | – | OC1CCN(Cc2onc(-c3ccc(F)cc3)c2-c2ccnc(NC3CCCCC3)n2)CC1 [V-05-013]
2 | > 1000 | > 1000 | > 1000 | > 1000 | > 1000 | > 1000 | > 1000 | 15 | – | OC[C@@H]1CCCN1Cc1onc(-c2ccc(F)cc2)c1-c1ccnc(NC2CCCCC2)n1 [V-05-014]
3 | > 1000 | > 1000 | > 1000 | > 1000 | > 1000 | > 1000 | > 1000 | – | 8 | Fc1ccc(-c2noc(CN3CCCCC3)c2-c2ccnc(NC3CCCCC3)n2)cc1 [V-05-015]
